Experimental data published in paper PMC9603521, “WYBQ-4: a New Bactericidal Agent against Methicillin-Resistant Staphylococcus aureus” (Microbiology Spectrum, 2022).
In brackets after ≈: the same amount, converted by molar mass. Several values for one entry are separate records, joined by “and”; a condition that tells them apart may be missing. Identical values can stand only once. Like-named read-outs stand apart in the source and are kept apart here.

Experiments:
[1] = tested on: methicillin-susceptible Staphylococcus epidermidis (MSSE) 35984; assay: MIC by broth microdilution (CLSI); format: cell-based
MRSA USA300 [2] = assay: Mouse intramuscular (thigh) infection model; format: in vivo; settings: MRSA USA300-infected mice; 300 mg/kg subcutaneous; 24 h after infection
Experimental: (§1) The therapeutic effects of WYBQ-4 on thigh infections induced by MRSA USA300 and MSSA 29213 in mice (6-week-old female C57BL/6J mice) were evaluated. […] Mice were infected by intramuscular injection of 0.1 mL of S. aureus culture (5 × 10^5 CFU) into the right thigh. […] Then, 24 h after infection, mice were euthanized, and the right thighs were aseptically removed, weighed, homogenized, and applied to nonresistant BHI plates for CFU counting.

MSSA 29213 = assay: Mouse intramuscular (thigh) infection model; format: in vivo; settings: MSSA 29213-infected mice; 300 mg/kg subcutaneous; 24 h after infection
Experimental: as §1

rabbit red blood cells = assay: Hemolytic activity; format: cell-based; settings: 0 to 512 μg/mL
A549 cells = assay: Cytotoxicity assay (cell viability); format: cell-based
Experimental: (§2) Cytotoxicity assay. The cytotoxicity of WYBQ-4 against A549, HEK-293T, or HepG2 cells was evaluated with a cell counting kit-8 kit (CCK8; US Everbright, Suzhou, China) according to the manufacturer’s instructions ([41]). In brief, 5 × 10^4 cells were seeded in 96-well plates containing prewarmed medium (100 μL) and incubated for 24 h at 37°C in 5% CO2. Then, various concentrations of WYBQ-4 (0 to 512 μg/mL) were added and further incubated for 24 h. Afterward, the cells were incubated with 100 μL of medium with 10 μL of CCK8 solution (Sigma-Aldrich) for 4 h. Finally, a solution of the purple precipitate dissolved in dimethyl sulfoxide (DMSO) was added to a 96-well plate, and the absorbance was measured at 450 nm.

HepG2 cells = assay: Cytotoxicity assay (cell viability); format: cell-based
Experimental: as §2

HEK-293T cells = assay: Cytotoxicity assay (cell viability); format: cell-based
Experimental: as §2

MRSA USA300 [3] = assay: Mouse lung infection model, survival; format: in vivo, mice; settings: mouse pneumonia, USA300 2 × 10^8 CFU, 12-h intervals, within 72 h
Experimental: The animal experiments were performed using 6-week-old male C57BL/6J mice, and the mouse model of lung infection caused by MRSA USA300 was established as previously described ([43], [44]). For the survival rate, mice (10 per group) were infected with MRSA USA300 (2 × 10^8 CFU per mouse). After 2 h of infection, mice were given WYBQ-4 via subcutaneous injection and reinjected at 12-h intervals, whereas mice were treated with ceftaroline fosamil at the same doses and served as positive controls. Mice injected with only MRSA USA300 were used as a negative control. Survival of mice was recorded within 72 h, and survival rates were calculated.

clinical isolate SA28 = assay: Mouse systemic infection model; format: in vivo, mice; settings: different doses
Experimental: (§3) The S. aureus-induced systemic infection model of mice (6-week-old female C57BL/6J mice) was established as previously described ([46]). […] The mice infected in the same way were treated with physiological saline as an infection control group. The mock group was not infected with S. aureus, and the 7-day mortality of the mice in each group was calculated.

MRSA USA300 [4] = assay: Mouse systemic infection model; format: in vivo, mice; settings: USA300 5 × 10^7 CFU, 150 mg/kg, tail intravenous injection at 0 and 3 h, 7-day
Experimental: as §3

clinical isolate SA1B2B = assay: Mouse systemic infection model; format: in vivo, mice; settings: different doses
Experimental: as §3

MRSA USA300 [5] = assay: TEM analysis of cell morphology / division defects; format: cell-based, Staphylococcus aureus; settings: 4 μg/mL (1/2× MIC), 3 h
Experimental: MRSA USA300 was cultured overnight, diluted (1:100) into 20 mL of Trypticase soy broth (TSB) medium, and incubated at 30°C with shaking until the optical density at 600 nm (OD600) reached 0.3. […] Bacterial cells treated with 4 μg/mL ceftaroline fosamil (1/2 of their respective MIC) served as a control group. Untreated S. aureus served as a negative control. Bacteria were collected and washed in PBS and resuspended in 4% (vol/vol) glutaraldehyde fixation overnight. The fixed samples were further processed, and morphological changes in S. aureus were observed by TEM (JSM-7900F; JEOL, Japan).

[6] = tested on: methicillin-resistant Staphylococcus epidermidis (MRSE) 12228; assay: MIC by broth microdilution (CLSI); format: cell-based

`C#CCO[C@@]1(NC(=O)CSc2cccc(C)c2)C(=O)N2C(C(=O)O)=C(CSc3nnnn3C)CSC21` (stereo partly shown) [WYBQ-4] was tested, and the MIC [1] was 0.5 µg/mL (≈ 0.915 µM), the “bacterial load in the thighs” value (MRSA USA300 [2]) was 5.97 log10 CFU/g and the “bacterial load in the thighs” value (MSSA 29213) was 5.21 log10 CFU/g. For the same compound, the hemolytic activity (rabbit red blood cells) was “did not show hemolytic activity”, the cell viability (A549 cells) was “still viable” and the cell viability (A549 cells; A549, 0-128 μg/mL) was “did not affect the viability”. The cell viability (HepG2 cells) was “still viable”, the cell viability (HepG2 cells; HepG2, 0-128 μg/mL) was “did not affect the viability” and the cell viability (HEK-293T cells) was “still viable”. The cell viability (HEK-293T cells; HEK-293T, 0-128 μg/mL) was “did not affect the viability”, the survival rate (MRSA USA300 [3]; 37.5 mg/kg subcutaneous) was 36.67% and the survival rate (MRSA USA300 [3]; 75 mg/kg subcutaneous) was 70.00%. The “protection in systemic infection” value (clinical isolate SA28) was “had a protective effect”, the survival rate (MRSA USA300 [4]) was 100% and the “protection in systemic infection” value (clinical isolate SA1B2B) was “had a protective effect”. For the same compound, the “Asymmetry of bacterial division (number of cells)” value (MRSA USA300 [5]) was 38, the “Distortion of septa (number of cells)” value (MRSA USA300 [5]) was 27 and the “Percentage of defective cells (asymmetry of bacterial division)” value (MRSA USA300 [5]) was 40.9 b %. The “Percentage of defective cells (distortion of septa)” value (MRSA USA300 [5]) was 29.0 a %, the “Percentage of defective cells (thin cell walls)” value (MRSA USA300 [5]) was 63.4% and 63.4 c % and the “Thin cell walls (number of cells)” value (MRSA USA300 [5]) was 59. It also gave an MIC [6] of 4 µg/mL (≈ 7.32 µM).
